Test results: patent EP1605929B1, “NON-STEROIDAL ANTI-INFLAMMATORY DRUG DOSING REGIMEN” (McNeil-PPC, Inc., priority 2003, dated 2004)

Tests used:
[1] = Therapeutic duration of action of an effective immediate release dose, from dosing instructions in product labeling
Procedure: As used herein, "ATDAIRD" shall mean the average therapeutic duration of action of an effective immediate release dose" of a particular active ingredient. For example, the typical duration of action of an immediate release dose of ibuprofen or ketoprofen is about 4 to about 6 hours. […] The therapeutic duration of action of a particular active ingredient can readily be determined from the dosing instructions in the labeling for immediate release products containing that particular active ingredient.

[2] = tested on: moderate to severe post-operative dental pain; assay: PK/PD dental pain study, pain relief scores and pain intensity differences over a 12 hour observation period; format: in vivo, human
Procedure: A double-blind, randomized, parallel, placebo-controlled, single center, PK/PD dental pain study was conducted over a 12 hour observation period to evaluate the pharmacokinetic, pharmacodynamic, efficacy and safety profiles of certain ibuprofen dosing regimens. Specifically, a single dose of 600 mg ibuprofen extended release caplets was compared with equivalent total doses of ibuprofen immediate release 200 mg caplets administered in three different dosing regimens as well as placebo in the treatment of moderate to severe post-operative dental pain.
The ibuprofen was administered as ibuprofen extended release 600 mg caplets or one or more ibuprofen immediate release 200 mg caplets.
The patients evaluated in this study consisted of male or non-pregnant and non-lactating female out-patient volunteers, 16 years of age or older, complaining of moderate to severe pain following the surgical extraction of three or four third molars with at least one partial or complete bony impacted third mandibular molar. The term impacted included: partial bony impaction, bony impaction, or complicated bony impaction. A total of 210 patients were entered into the study. 208 patients were eligible for the efficacy analyses.
All patients who met the entrance criteria were enrolled in one of two study sub-groups. One sub-group of patients had both pharmacokinetic and pharmacodynamic evaluation (PK group). The other sub-group of patients had only the analgesic efficacy evaluations (non-PK group). A separate randomization schedule was used for each of the two sub-groups. Patients from both subgroups were assigned at random to one of the five following treatments:
Patients' assessments of pain intensity and pain relief as well as blood samples for plasma ibuprofen analysis were obtained at the study site at hours 0, 0.25, 0.5, 1, 1.5, 2, 2.5, 3, 4, 4.5, 5, 6, 7, 8, 8.5, 9, 10, 11 and 12. A stopwatch technique was used to measure the onset of meaningful pain relief.

SMILES | ATDAIRD (average therapeutic duration of action of an effective immediate release dose) [1] | pain relief ([2]; 400/200/0 administration (immediate release, 400 mg at 0 hour; 200 mg at 4 hours), entire 12 hour study period, Figure 2) | pain relief ([2]; 400/200/0 treatment (immediate release, 400 mg at 0 hour; 200 mg at 4 hours), first four hours, Figure 2) | pain relief scores ([2]; 400/200/0 treatment, 4 to 12 hour interval, no further ibuprofen after the first four hours, Figure 2) | pain intensity differences (PID) ([2]; 400/200/0 treatment, 12 hour study period, particularly after the four hour mark, Figure 3) | pain relief ([2]; 600/0/0 immediate release treatment (600 mg single dose at 0 hour), first four hours, Figure 2)
COc1ccc2cc([C@H](C)C(=O)O)ccc2c1 [naproxen] | 10 h |  |  |  |  | 
CC(C(=O)O)c1cccc(C(=O)c2ccccc2)c1 (centres unmarked) [ketoprofen] | 5 h |  |  |  |  | 
CC(C)Cc1ccc(C(C)C(=O)O)cc1 (centres unmarked) [ibuprofen, 2-(4-isobutylphenyl)-propionic acid] | 5 h | excellent pain relief | superior pain relief over the other treatments | highest pain relief scores | best PID | superior pain relief over the other treatments
